Measured values taken from patent publication US20250304576A1 (Cancer Research Technology Limited, priority 2022, published 2025).

What was measured:
Recombinant IKKβ = biological target: T1, Recombinant IKKβ (Homo sapiens, UniProt O14920); test: DELFIA IKKβ kinase assay (apparent Ki, Cheng-Prusoff); format: biochemical
T1 construct: purchased Millipore, Dundee, UK
T1 sequence (O14920 1-756): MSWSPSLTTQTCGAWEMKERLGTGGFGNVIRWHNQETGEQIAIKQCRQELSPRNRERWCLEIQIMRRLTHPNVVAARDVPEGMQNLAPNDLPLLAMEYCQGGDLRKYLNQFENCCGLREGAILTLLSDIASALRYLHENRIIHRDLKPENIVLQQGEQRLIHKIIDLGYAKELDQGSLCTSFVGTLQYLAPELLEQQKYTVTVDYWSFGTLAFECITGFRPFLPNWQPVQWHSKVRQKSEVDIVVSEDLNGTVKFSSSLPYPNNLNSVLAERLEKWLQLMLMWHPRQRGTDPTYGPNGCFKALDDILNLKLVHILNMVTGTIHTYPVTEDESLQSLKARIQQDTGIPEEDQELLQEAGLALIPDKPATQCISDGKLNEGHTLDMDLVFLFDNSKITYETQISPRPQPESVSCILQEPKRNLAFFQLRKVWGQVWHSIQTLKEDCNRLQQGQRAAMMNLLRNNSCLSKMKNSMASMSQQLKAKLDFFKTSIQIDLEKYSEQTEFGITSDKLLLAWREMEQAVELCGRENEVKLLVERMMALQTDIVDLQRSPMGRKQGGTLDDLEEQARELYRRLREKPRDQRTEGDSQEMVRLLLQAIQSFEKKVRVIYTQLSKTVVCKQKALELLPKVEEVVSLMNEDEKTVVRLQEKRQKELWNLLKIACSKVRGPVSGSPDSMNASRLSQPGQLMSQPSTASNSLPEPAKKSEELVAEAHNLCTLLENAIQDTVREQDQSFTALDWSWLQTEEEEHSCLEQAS
Summary of the method: (§1)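 DELFIA time-resolved fluorescence (ex 340/em 615 nm) quantified phosphorylation of a biotinylated IκB-α Ser32 peptide (0.375 μM) by 37 nM recombinant IKKα or IKKβ. Reactions used 40 μM ATP, Tris pH 7.5 buffer with MgCl2, DTT and BSA, 60 min at 30° C. Cheng-Prusoff equation gave apparent Ki.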

Recombinant IKKα = biological target: T2, Recombinant IKKα (Homo sapiens, UniProt O15111); test: DELFIA IKKα kinase assay (apparent Ki, Cheng-Prusoff); format: biochemical
T2 construct: purchased Millipore, Dundee, UK
T2 sequence (O15111 1-745): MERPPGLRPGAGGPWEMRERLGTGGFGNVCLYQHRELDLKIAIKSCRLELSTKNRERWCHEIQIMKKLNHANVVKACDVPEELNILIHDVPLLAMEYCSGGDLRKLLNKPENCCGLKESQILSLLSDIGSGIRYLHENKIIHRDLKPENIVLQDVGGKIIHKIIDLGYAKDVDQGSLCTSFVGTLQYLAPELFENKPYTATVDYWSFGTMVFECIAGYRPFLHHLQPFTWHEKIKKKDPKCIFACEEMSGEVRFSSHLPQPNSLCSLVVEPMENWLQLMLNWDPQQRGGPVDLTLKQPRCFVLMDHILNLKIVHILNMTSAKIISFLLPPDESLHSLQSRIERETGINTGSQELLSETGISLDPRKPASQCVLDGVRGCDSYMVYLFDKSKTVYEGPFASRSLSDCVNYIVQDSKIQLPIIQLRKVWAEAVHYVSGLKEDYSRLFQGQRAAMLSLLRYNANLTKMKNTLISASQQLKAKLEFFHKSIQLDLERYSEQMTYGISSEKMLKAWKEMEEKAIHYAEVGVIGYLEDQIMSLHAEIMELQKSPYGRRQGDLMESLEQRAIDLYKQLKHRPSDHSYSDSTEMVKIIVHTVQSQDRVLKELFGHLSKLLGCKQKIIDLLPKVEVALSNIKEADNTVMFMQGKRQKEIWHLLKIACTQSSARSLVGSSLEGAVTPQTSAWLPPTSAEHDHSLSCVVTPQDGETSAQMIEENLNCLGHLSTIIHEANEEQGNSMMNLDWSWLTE
Summary of the method: as §1

[1] = DELFIA assay (first line of an example)
[2] = non-italicised figure: DELFIA assay

Compound | Ki (Recombinant IKKβ; [1]) | Ki (Recombinant IKKα; [1]) | Ki (Recombinant IKKβ; [2]) | Ki (Recombinant IKKα; [2])
Nc1n[nH]c2c(C#CCCCCC(=O)O)cc(-c3ccnc4[nH]ccc34)cc12 [Example 215, 7-(3-Amino-5-(1H-pyrrolo[2,3-b]pyridin-4-yl)-1H-indazol-7-yl)hept-6-ynoic acid] | 256 nM | 38 nM | – | –
NC(=O)c1cccc(-c2cc(-c3ccnc(N)c3)cc3c(N)n[nH]c23)c1 [Example 113, 3-(3-Amino-5-(2-aminopyridin-4-yl)-1H-indazol-7-yl)benzamide] | – | – | 840 nM | 43 nM
CC(C)(C)C#Cc1cc(-c2ccnc(NC3CC3)c2)cc2c(N)n[nH]c12 [Example 153, 5-(2-(Cyclopropylamino)pyridine-4-yl)-7-(3,3-dimethylbut-1-yn-1-yl)-1H-indazol-3-amine] | – | – | 100 nM | 4 nM
Cc1cc(Nc2cc(-c3cc(C#CC(C)(C)C)c4[nH]nc(N)c4c3)ccn2)n[nH]1 [Example 312, 7-(3,3-Dimethylbut-1-yn-1-yl)-5-(2-((5-methyl-1H-pyrazol-3-yl)amino)pyridin-4-yl)-1H-indazol-3-amine] | 210 nM | 45 nM | – | –
CC(C)(C)C#Cc1cc(-c2ccnc3[nH]c(C4CC4)cc23)cc2c(N)n[nH]c12 [Example 294, 5-(2-Cyclopropyl-1H-pyrrolo[2,3-b]pyridin-4-v)-7-(3,3-dimethylbut-1-yn-1-Vl)-1H-indazol-3-amine] | 322 nM | 57 nM | – | –
Nc1nccc(-c2ccc3[nH]nc(N)c3c2)c1C#CCC1CCNCC1 [Example 97, 5-(2-Amino-3-(3-(piperidin-4-yl)prop-1-yn-1-yl)pyridin-4-yl)-1H-indazol-3-amine] | – | – | 105 nM | 15 nM
Cn1ccc(Nc2cc(-c3cc(C#CC(C)(C)C)c4[nH]nc(N)c4c3)ccn2)n1 [Example 302, 7-(3,3-dimethylbut-1-yn-1-yl)-5-(2-((1-methyl-1H-pyrazol-3-yl)amino)pyridin-4-yl)-1H-indazol-3-amine] | 148 nM | 62 nM | – | –
Nc1n[nH]c2c(Cl)cc(-c3ccnc4[nH]c(C(=O)NCCN5CCCCC5)cc34)cc12 [Example 274, 4-(3-Amino-7-chloro-1H-indazol-5-yl)-N-(2-(piperidin-1-yl)ethyl)-1H-pyrrolo[2,3-b]pyridine-2-carboxamide] | 126 nM | 8 nM | – | –
Nc1n[nH]c2ccc(-c3ccnc4[nH]c(C(=O)NC5CCCC5)cc34)cc12 [Example 235, 4-(3-Amino-1H-indazol-5-yl)-N-cyclopentyl-1H-pyrrolo[2,3-b]pyridine-2-carboxamide] | 70 nM | 6 nM | – | –
CC(C)(C)C#Cc1cc(-c2ccnc3[nH]c(C(F)F)nc23)cc2c(N)n[nH]c12 [Example 300, 5-(2-(Difluoromethyl)-3H-imidazo[4,5-b]pyridin-7-yl)-7-(3,3-dimethylbut-1-yn-1-yl)-1H-indazol-3-amine] | 1340 nM | 13 nM | – | –
COC(=O)c1cc2c(-c3cc(C#CC(C)(C)C)c4[nH]nc(N)c4c3)ccnc2[nH]1 [Example 299, Methyl 4-(3-amino-7-(3,3-dimethylbut-1-yn-1-yl)-1H-indazol-5-yl)-1H-pyrrolo[2,3-b]pyridine-2-carboxylate] | > 370 nM | 10 nM | – | –
Nc1cc(-c2cc(-c3cccc(S(N)(=O)=O)c3)c3[nH]nc(N)c3c2)ccn1 [Example 114, 3-(3-Amino-5-(2-aminopyridin-4-yl)-1H-indazol-7-yl)benzenesulfonamide] | – | – | 461 nM | 7 nM
Nc1n[nH]c2ccc(-c3ccnc(NC(=O)Nc4cccc(F)c4)c3)cc12 [Example 51, 1-(4-(3-Amino-1H-indazol-5-yl)pyridine-2-yl)-3-(3-fluorophenyl)urea] | – | – | 126 nM | 14 nM
Nc1n[nH]c2ccc(-c3ccnc(NC(=O)Nc4cccc(Cl)c4)c3)cc12 [Example 52, 1-(4-(3-Amino-1H-indazol-5-yl)pyridin-2-yl)-3-(3-chlorophenyl)urea] | – | – | 400 nM | 36 nM
Nc1n[nH]c2ccc(-c3ccnc4[nH]c(C(=O)NCCc5ccccc5)cc34)cc12 [Example 238, 4-(3-Amino-1H-indazol-5-yl)-N-phenethyl-1H-pyrrolo[2,3-b]pyridine-2-carboxamide] | 90 nM | 23 nM | – | –
